The record followed here is the NIST ThermoML archive (doi:10.1016/j.fluid.2015.01.026).

± gives the expanded uncertainty stated by the source.

In general, mass density refers to the mass of a sample divided by its volume.

The conditions of this series: 298.15 K; 101.33 kPa; Liquid; Vibrating tube method.
In the case of `CC(=O)c1ccccc1` [acetophenone], the mass density is listed as 1023.05 ± 0.25 kg/m3.

For `CCCCCCCCCC` [decane], the mass density is given as 726.347 ± 0.24 kg/m3.

As to `CCCCCCCCCCCC` [dodecane], the mass density worked out at 741.523 ± 0.58 kg/m3.

Regarding `CCCCCCCCCCCCCCCC` [hexadecane], the mass density came to 770.221 ± 0.24 kg/m3.

`CCCCCCCCCCCCCC` [tetradecane]: the mass density is listed as 759.275 ± 0.24 kg/m3.
